These are literature values, as cited in US8278451B2, “Pseudoazulenyl nitrones” (The Florida International University Board of Trustees, priority 2006, dated 2012).

Data set [1] relates to age-related changes in cognitive performance. The note with it: aged rats, chronic treatment.
Data set [2] has as its system human diploid fibroblast cells. Particulars: human diploid fibroblast cells in culture.
In another data set the test system is lifespan. The note with it: aged animal model, daily intraperitoneal injection, male and female.
For data set [3], the system named is LPS-induced organ dysfunction and cytokine secretion. Particulars: rats, LPS administered.
The conditions of data set [4]: aqueous solution at pH 7 and 20° C.

With `CC(C)(C)[N+]([O-])=Cc1ccccc1` [PBN, alpha-phenyl-N-tert-butylnitrone], the “age-related changes in cognitive performance” value in data set [1] is listed as “benefit (i.e., improve) age-related changes in cognitive performance”. Further, in data set [2], the onset of senescence entry is “effectively delayed the onset of senescence”. Besides, the lifespan result in the data set on lifespan was “remarkable extension of the lifespan”.

Turning to `CC1(C)Cc2ccccc2C=[N+]1[O-]` [MDL 101,002], in data set [3], the LPS-induced leukopenia result is listed as “failed to prevent leukopenia”; the LPS-induced pulmonary edema result is on record as “prevented pulmonary edema”; the LPS-induced thrombocytopenia result was “partially reduced thrombocytopenia”; the “organ dysfunction and cytokine secretion induced by LPS” value is “reduces organ dysfunction and cytokine secretion”.

Take `Cc1c(C)c2c(c(C)c1O)CC[C@@](C)(CCC[C@H](C)CCC[C@H](C)CCCC(C)C)O2` [vitamin E, alpha-tocopherol]: the “age-related changes in cognitive performance” value in data set [1] is “benefit (i.e., improve) age-related changes in cognitive performance”. Also, the “one-electron oxidative potential (vs. NHE)” value in data set [4] is recorded as 0.48 V.
